Data set [1] deals with influenza A or B viruses. Put plainly: Anti-influenza virus activity in MDCK cells, MTS assay, overall for the three influenza A or B viruses. Type of data set: cell-based, Influenza A and B viruses. (In general: Tetrazolium dyes change colour on reduction, which living cells bring about.)
The test system of data set [2] is S. epidermidis mecA. Put plainly: Broth microdilution MIC, S. epidermidis mecA. Type of data set: cell-based. The settings on record: Staphylococcus epidermidis, read-out: In Vitro MIC. As to the method:
(§1) Antibacterial tests were carried out by the broth microdilution method on a panel of eight Gram-positive bacterial strains, using vancomycin and teicoplanin as reference compounds.
Background: In broth dilution the organism is exposed to a series of concentrations in liquid medium.

In data set [3] the test system is HeLa, human cervix carcinoma cells. To be noted: read-out: CC50 HeLa; mock-infected HeLa cells, MTS assay.
Data set [4] relates to S. aureus MRSA ATCC 33591. Put plainly: Broth microdilution MIC, S. aureus MRSA ATCC 33591. The settings on record: Staphylococcus aureus, read-out: In Vitro MIC. Type of data set: cell-based. As to the method: as §1
Data set [5] relates to human coronavirus 229E. The class given is cell-based. To be noted: 25 µM compound (non-toxic concentration); HEL cells.
Data set [6] has as its system E. faecalis ATCC 51,299 VanB. Put plainly: Broth microdilution MIC, E. faecalis ATCC 51,299 VanB. Type of data set: cell-based. To be noted: Enterococcus faecalis, ATCC51, read-out: In Vitro MIC. The method, then: as §1
For data set [7], the system named is MDCK cells. To be noted: read-out: CC50 (50% cytotoxic concentration), mock-infected, MTS cell viability assay, three days.
Data set [8] concerns E. faecalis 15,376 VanA. Put plainly: Broth microdilution MIC, E. faecalis 15,376 VanA. Type of data set: cell-based. To be noted: Enterococcus faecalis, read-out: In Vitro MIC. The method, then:
as §1

Data set [9] relates to human coronavirus 229E. Put plainly: Coronavirus 229E virus yield reduction, RT-qPCR of viral RNA in supernatant, HEL cells. To be noted: day 4 p.i. The class given is cell-based. As to the method: To assess inhibition of human coronavirus 229E replication, HEL cells were infected and treated with 1:2 serial compound dilutions. The plate contained three virus controls (receiving no compound) and two cell controls (receiving no virus and no compound). At day 4 p.i., supernatants were frozen at −80 °C to determine the virus yield by one-step RT-qPCR assay. Two microliters supernatant was mixed with 11 µl lysis mix containing lysis enhancer and resuspension buffer at a 1:10 ratio (CellsDirect One-Step RT-qPCR kit; Invitrogen), and heated for 10 min at 75 °C. Five microliters of lysate was transferred to a PCR plate containing 9.75 µl RT-qPCR mix (CellsDirect One-Step RT-qPCR) and 0.25 µl Superscript III RT/Platinum Taq enzyme, and coronavirus-229E N-gene specific primers and probe (forward primer 5′-[…] -3′; reverse primer 5′-[…] -3′; probe 5′-FAM-[…]-ZEN-[…] -IBFQ-3′). The RT-qPCR program consisted of 15 min at 50 °C, 2 min at 95 °C, and 50 cycles of 15 s at 95 °C and 45 s at 60 °C. An N-gene plasmid standard was included for absolute quantification.
Background: Real-time PCR tracks product formation cycle by cycle.

Data set [10] has as its system S. aureus MSSA ATCC 29213. Put plainly: Broth microdilution MIC, S. aureus MSSA ATCC 29213. The class given is cell-based. The settings on record: Staphylococcus aureus; S. aureus MSSA ATCC 29213; broth microdilution; read-out: In Vitro MIC. The method, then: as §1
Data set [11] deals with S. epidermidis ATCC 35984. Put plainly: Broth microdilution MIC, S. epidermidis ATCC 35984. The class given is cell-based. The settings on record: Staphylococcus epidermidis, ATCC35984; S. epidermidis ATCC 35984; broth microdilution; read-out: In Vitro MIC. The method, then: as §1
In data set [12] the test system is B. subtilis ATCC 6633. Put plainly: Broth microdilution MIC, B. subtilis ATCC 6633. To be noted: Bacillus subtilis, ATCC6633; B. subtilis ATCC 6633; broth microdilution; read-out: In Vitro MIC. The class given is cell-based. The method, then: as §1
Data set [13] relates to Vero, African Green monkey kidney cells. The settings on record: read-out: CC50 Vero; mock-infected Vero cells, MTS assay.
Data set [14] deals with E. faecalis ATCC 29212. Put plainly: Broth microdilution MIC, E. faecalis ATCC 29212. Type of data set: cell-based. The settings on record: Enterococcus faecalis, ATCC29212; E. faecalis ATCC 29212; broth microdilution; read-out: In Vitro MIC. The method, then: as §1
Data set [15] has as its system HEL, human embryonic lung fibroblast cells. The settings on record: read-out: CC50 HEL; mock-infected HEL cells, MTS assay.
Data set [16] relates to A/PR/8/34 virus. The class given is cell-based, Influenza A virus.
Data set [17] deals with Zika virus (strain MR766). Put plainly: CPE reduction, MTS assay, Zika virus in Vero cells. To be noted: protection against virus-induced CPE, read-out: Antiviral EC50 Zika Virus. The class given is cell-based.
The nature of data set [18]: in vitro. The settings on record: human.
The nature of data set [19]: in vitro. The settings on record: human. The source holds these as a separate data set.
Data set [20] in a line: in vitro. To be noted: African green monkey.
For data set [21], the system named is yellow fever virus (vaccine strain 17D). Put plainly: microbe, parasite or virus in culture. Type of data set: cell-based. The settings on record: Vero, read-out: Antiviral EC50 Yellow Fever Virus.
Data set [22] concerns Influenza B (B/Ned/537/05). Put plainly: Influenza CPE reduction in MDCK cells, MTS assay, influenza B. Type of data set: cell-based. To be noted: Influenza B virus, inhibition of virus-induced CPE by MTS assay, read-out: Antiviral EC50 Influenza B.
The subject of data set [23] is Influenza A/H3N2 (A/Victoria/361/11). Put plainly: Influenza CPE reduction in MDCK cells, MTS assay, A/H3N2. The class given is cell-based. The settings on record: Influenza A virus, H3N2, MDCK, read-out: Antiviral EC50 Influenza A/H3N2.
For data set [24], the system named is Influenza A/H1N1 (A/Ned/378/05). Put plainly: Influenza CPE reduction in MDCK cells, MTS assay, A/H1N1. The settings on record: Influenza A virus, H1N1, MDCK, read-out: Antiviral EC50 Influenza A/H1N1. Type of data set: cell-based.
In data set [25] the test system is respiratory syncytial virus (RSV, strain Long). Put plainly: CPE reduction, MTS assay, RSV in HeLa cells. The class given is cell-based. To be noted: human respiratory syncytial virus, read-out: Antiviral EC50 RSV.

From publication PMC7407158, “Reprogramming of the Antibacterial Drug Vancomycin Results in Potent Antiviral Agents Devoid of Antibacterial Activity” (Pharmaceuticals, 2020) come the findings set out here.

SMILES strings stand for the structures. Converted amounts (≈) assume the structure as drawn. Some results are limits rather than exact numbers.

In general, MIC refers to the lowest concentration that inhibits growth of the organism. For the molecule `CCCCCCCCCCOCc1cn(CCOCCOCCOCCOCc2cn(C3C(=O)NC(CC(N)=O)C(=O)NC4C(=O)NC5C(=O)NC(C(=O)NC(C(=O)O)c6cc(O)cc(O)c6-c6cc5ccc6O)C(O)c5ccc(c(Cl)c5)Oc5cc4cc(c5O)Oc4ccc(cc4Cl)C3O)nn2)nn1` (stereo not drawn) [Compound 6], the “anti-influenza virus activity (in words)” value in data set [1] is reported as “robust activity”. Moreover, the MIC came out at 32 µg/mL (≈ 21.4 µM) in [2]; 128 µg/mL (≈ 85.5 µM) in data set [4]; 128 µg/mL (≈ 85.5 µM) in [6]; 128 µg/mL (≈ 85.5 µM) in data set [8]; 128 µg/mL (≈ 85.5 µM) in data set [10]; 32 µg/mL (≈ 21.4 µM) in data set [11]. Further, the MIC in data set [12] and in [14] was 32 µg/mL (≈ 21.4 µM) throughout. The CC50 in data set [3] is over 100 µM; in data set [7] it was 41 µM; in data set [13], over 100 µM; in data set [15], over 100 µM. Besides, the “coronavirus 229E-induced cytopathicity observed microscopically” value in [5] was “no coronavirus 229E-induced cytopathicity could be observed microscopically”. The “reduction of the viral RNA copy number in the supernatant” value in data set [9] (25 µM compound) was 1000 fold. Also, the “EC99 value for reduction of virus yield” value in [9] (RT-qPCR of supernatant) turned out to be 20 µM. For the same molecule, in data set [16], the “virus-induced cytopathic effect (CPE) upon microscopic inspection” value was “no virus-induced cytopathic effect (CPE) was observed”.

`COc1c(C)c2c(c(O)c1C/C=C(\C)CCC(=O)O)C(=O)OC2` [Mycophenolic acid]: the EC50 in data set [17] is 0.8 µM; in data set [21], 0.7 µM. The CC50 in data set [18], in [19] and in data set [20] was over 100 µM in each case.

As to `NC(=O)c1ncn([C@@H]2O[C@H](CO)[C@@H](O)[C@H]2O)n1` [Ribavirin], the EC50 in [22] was 7.2 µM; in data set [23], 6.4 µM; in data set [24], 7 µM; in data set [25], 5 µM; in [21], 119 µM. The CC50 in [18], in data set [19] and in [20] was over 250 µM in each case.
